Test results: patent US9624224B2, “Inhibitors of Bruton's tyrosine kinase” (Pharmacyclics LLC, priority 2013, dated 2017)

Assays:
Assay type in all cases: biochemical
EGFR = EGFR (Homo sapiens, UniProt P00533); assay: EGFR kinase inhibition (in vitro kinase assay)
BTK = molecular target: T1, BTK (Homo sapiens, UniProt Q06187); assay: Btk in vitro inhibitory activity (TR-FRET, mobility shift or radiometric filter binding kinase assay); details: determined using one of the methods outlined in Example 47a, 47b, and 47c
T1 construct: purified from insect cells as a full-length construct containing a N-terminal 6×-His tag; His6 (N); made in house; host or cells: insect cells (baculovirus, Sf21)
T1 sequence (Q06187 whole entry): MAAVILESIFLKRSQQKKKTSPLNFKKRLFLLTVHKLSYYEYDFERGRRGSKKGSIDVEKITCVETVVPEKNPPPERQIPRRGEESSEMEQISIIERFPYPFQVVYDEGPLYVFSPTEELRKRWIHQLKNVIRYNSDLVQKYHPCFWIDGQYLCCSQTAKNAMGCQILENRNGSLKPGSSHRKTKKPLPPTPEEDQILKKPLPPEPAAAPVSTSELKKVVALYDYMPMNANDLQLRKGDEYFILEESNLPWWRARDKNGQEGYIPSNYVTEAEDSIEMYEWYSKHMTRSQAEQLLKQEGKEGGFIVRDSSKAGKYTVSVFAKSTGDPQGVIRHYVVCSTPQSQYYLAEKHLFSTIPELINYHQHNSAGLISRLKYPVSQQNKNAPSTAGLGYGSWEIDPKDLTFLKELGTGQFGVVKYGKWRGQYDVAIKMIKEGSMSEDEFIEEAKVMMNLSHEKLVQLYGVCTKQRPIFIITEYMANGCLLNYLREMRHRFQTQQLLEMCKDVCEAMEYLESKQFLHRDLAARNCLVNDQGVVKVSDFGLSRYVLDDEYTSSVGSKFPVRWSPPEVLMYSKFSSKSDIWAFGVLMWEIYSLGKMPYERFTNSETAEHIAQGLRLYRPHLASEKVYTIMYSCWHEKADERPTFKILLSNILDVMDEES
Method: (§1) Btk kinase activity is determined using a time-resolved fluorescence resonance energy transfer (TR-FRET) methodology. Measurements are performed in a reaction volume of 50 μL using 96-well assay plates. […] The reaction is quenched by the addition of 1.2 equivalents of EDTA (relative to divalent cation) in 25 μL of 1× Lance buffer (Perkin-Elmer). Streptavidin-APC (Perkin-Elmer) and Eu-labeled p-Tyr100 antibody (Perkin-Elmer) in 1× Lance buffer are added in a 25 μL volume to give final concentrations of 100 nM and 2.5 nM, respectively, and the mixture is allowed to incubate for one hour. The TR-FRET signal is measured on a multimode plate reader with an excitation wavelength (λEx) of 330 nm and detection wavelengths (λEm) of 615 and 665 nm. Activity is determined by the ratio of the fluorescence at 665 nm to that at 615 nm. For each compound, enzyme activity is measured at various concentrations of compound. Negative control reactions are performed in the absence of inhibitor in replicates of six, and two no-enzyme controls are used to determine baseline fluorescence levels. Inhibition constants, Ki(app), ware obtained using the program BatchKi (Kuzmic et al. (2000), Anal. Biochem. 286:45-50). IC50s are obtained according to the equation: IC50={Ki(app)/(1+[ATP]/Km^ATP)}+[E]total/2;
(§2) For all kinases, [ATP]=Km^ATP, [Btk]total=0.5 nM and [Lck]total=6 nM.
Kinase activity is measured in vitro using electrophoretic mobility shift assay. The kinase reactions are assembled in a total volume of 25 μL in 384 well plates. […] The reaction is incubated for one hour and is quenched by the addition of 45 μL of termination buffer (100 mM HEPES, pH7.5, 0.01% Triton X-100, 30 mM EDTA). The terminated reactions are analyzed using 12 channel LabChip® 3000 microfluidic detection instrument (Caliper Life Sciences). The enzymatic phosphorylation of the peptide results in a change in net charge, enabling electrophoretic separation of product from substrate peptide. As substrate and product peptides are separated, two peaks of fluorescence are observed. Change in the relative fluorescence intensity of the substrate and product peaks is the parameter measured, reflecting enzyme activity. In the presence of an inhibitor, the ratio between product and substrate is altered: the signal of the product decreases, while the signal of the substrate increases.
Activity in each sample is determined as the product to sum ratio (PSR): P/(S+P), where P is the peak height of the product peptide and S is the peak height of the substrate peptide. For each compound, enzyme activity is measured at various concentrations (12 concentrations of compound spaced by 3× dilution intervals). Negative control samples (0%-inhibition in the absence of inhibitor) and positive control samples (100%-inhibition, in the presence of 20 mM EDTA) are assembled in replicates of four and are used to calculate %-inhibition values for each inhibitor at each concentration. Percent inhibition (Pinh) is determined using following equation: Pinh=(PSR0%−PSRinh)/(PSR0%−PSR100%)*100,
where PSRmh is the product sum ratio in the presence of inhibitor, PSR0% is the average product sum ration in the absence of inhibitor and PSR100% is the average product sum ratio in 100%-inhibition control samples;
The IC50 values of inhibitors are determined by 4 parameter sigmoidal dose-response model fitting of the inhibition curves (Pinh versus inhibitor concentration) using XLfit 4 software.
Human Btk kinase (Genbank accession # NP_000052) was purified from insect cells as a full-length construct containing a N-terminal 6×-His tag. Btk kinase activity was determined using a radiometric filter binding assay. Measurements are performed in a low μL reaction volume 384-well assay plates. […]

Lck = Lck (Homo sapiens, UniProt P06239); assay: Lck kinase inhibition (in vitro kinase assay)
Sequence of Lck (P06239 whole entry, species assumed): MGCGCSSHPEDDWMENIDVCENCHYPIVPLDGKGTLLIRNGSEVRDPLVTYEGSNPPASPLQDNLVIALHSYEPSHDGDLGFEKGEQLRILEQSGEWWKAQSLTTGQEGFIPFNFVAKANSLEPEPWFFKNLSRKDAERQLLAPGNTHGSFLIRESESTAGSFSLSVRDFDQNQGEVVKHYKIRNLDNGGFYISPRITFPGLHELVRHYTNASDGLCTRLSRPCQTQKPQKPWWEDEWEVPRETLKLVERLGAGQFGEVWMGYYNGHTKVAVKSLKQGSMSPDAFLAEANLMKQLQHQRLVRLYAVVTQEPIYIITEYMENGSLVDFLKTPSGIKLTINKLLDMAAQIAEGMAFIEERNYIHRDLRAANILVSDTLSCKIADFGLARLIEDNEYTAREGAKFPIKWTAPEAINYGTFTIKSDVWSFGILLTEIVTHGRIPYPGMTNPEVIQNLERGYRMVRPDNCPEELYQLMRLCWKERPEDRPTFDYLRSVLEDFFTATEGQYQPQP
Method: as §1, §2

Sequence of EGFR (P00533 25-1210, species assumed): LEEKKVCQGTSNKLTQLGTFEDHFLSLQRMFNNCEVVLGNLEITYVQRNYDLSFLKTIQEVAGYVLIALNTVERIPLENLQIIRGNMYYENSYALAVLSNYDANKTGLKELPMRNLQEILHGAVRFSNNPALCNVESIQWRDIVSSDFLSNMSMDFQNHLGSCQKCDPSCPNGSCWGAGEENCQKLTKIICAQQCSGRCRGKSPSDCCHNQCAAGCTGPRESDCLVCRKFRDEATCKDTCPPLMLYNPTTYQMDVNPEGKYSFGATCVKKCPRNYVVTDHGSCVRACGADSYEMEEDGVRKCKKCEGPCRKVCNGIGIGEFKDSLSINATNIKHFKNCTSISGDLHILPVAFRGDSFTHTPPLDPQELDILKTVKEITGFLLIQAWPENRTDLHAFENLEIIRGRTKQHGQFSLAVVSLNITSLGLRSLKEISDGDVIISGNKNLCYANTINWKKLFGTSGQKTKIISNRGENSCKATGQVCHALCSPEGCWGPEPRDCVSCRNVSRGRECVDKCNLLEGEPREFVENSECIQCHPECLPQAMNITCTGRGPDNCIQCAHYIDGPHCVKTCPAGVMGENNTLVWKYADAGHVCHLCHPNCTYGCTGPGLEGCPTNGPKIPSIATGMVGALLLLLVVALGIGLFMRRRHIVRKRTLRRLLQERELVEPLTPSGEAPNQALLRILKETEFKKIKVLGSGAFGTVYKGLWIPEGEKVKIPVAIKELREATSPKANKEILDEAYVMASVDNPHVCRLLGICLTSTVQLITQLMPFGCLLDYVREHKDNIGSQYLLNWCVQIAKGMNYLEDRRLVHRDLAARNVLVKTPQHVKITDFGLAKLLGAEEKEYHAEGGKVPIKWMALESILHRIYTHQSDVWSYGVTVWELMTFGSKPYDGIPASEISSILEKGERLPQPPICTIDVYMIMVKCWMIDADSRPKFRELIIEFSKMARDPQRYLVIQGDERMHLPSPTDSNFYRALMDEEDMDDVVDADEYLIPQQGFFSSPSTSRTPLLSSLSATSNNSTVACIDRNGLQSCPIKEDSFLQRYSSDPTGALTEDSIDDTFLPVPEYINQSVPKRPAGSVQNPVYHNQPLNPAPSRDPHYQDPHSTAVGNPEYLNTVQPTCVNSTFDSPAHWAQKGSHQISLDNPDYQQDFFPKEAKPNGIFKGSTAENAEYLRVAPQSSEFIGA

Row | IC50 (EGFR) | IC50 (BTK) | IC50 (Lck) | SMILES
1 | 1000 to 10000 nM | < 1 nM | 100 to 1000 nM | CN(C/C=C/C(=O)N1CC[C@@H](n2nc(-c3ccc(C(=O)Nc4cc(C5CC5)ccn4)cc3)c3c(N)ncnc32)C1)C1CC1 [Example 17, (R,E)-4-(4-amino-1-(1-(4-(cyclopropyl(methyl)amino)but-2-enoyl)pyrrolidin-3-yl)-1H-pyrazolo[3,4-d]pyrimidin-3-yl)-N-(4-cyclopropylpyridin-2-yl)benzamide]
2 | 100 to 1000 nM | < 1 nM | 100 to 1000 nM | CN(C)C/C=C/C(=O)N1CC[C@@H](n2nc(-c3ccc(C(=O)Nc4cc(C#N)ccn4)cc3)c3c(N)ncnc32)C1 [Example 32, (R,E)-4-(4-amino-1-(1-(4-(dimethylamino)but-2-enoyl)pyrrolidin-3-yl)-1H-pyrazolo[3,4-d]pyrimidin-3-yl)-N-(4-cyanopyridin-2-yl)benzamide]
3 | 100 to 1000 nM | < 1 nM | 100 to 1000 nM | CN(C/C=C/C(=O)N1CC[C@@H](n2nc(-c3ccc(C(=O)Nc4cc(C(F)(F)F)ccn4)cc3)c3c(N)ncnc32)C1)C1CC1 [Example 2, (R,E)-4-(4-Amino-1-(1-(4-(cyclopropyl(methyl)amino)but-2-enoyl)pyrrolidin-3-yl)-1H-pyrazolo[3,4-d]pyrimidin-3-yl)-N-(4-(trifluoromethyl)pyridin-2-yl)benzamide]
4 | 1000 to 10000 nM | < 100 nM | 100 to 1000 nM | Cc1cnc(NC(=O)c2ccc(-c3nn([C@@H]4CCN(C(=O)/C=C/CN(C)C5CC5)C4)c4ncnc(N)c34)cc2)s1 [Example 6, (R,E)-4-(4-amino-1-(1-(4-(cyclopropyl(methyl)amino)but-2-enoyl)pyrrolidin-3-yl)-1H-pyrazolo[3,4-d]pyrimidin-3-yl)-N-(5-methylthiazol-2-yl)benzamide]
5 |  | < 1 nM |  | CN(C)C/C=C/C(=O)N1CCC[C@@H](n2nc(-c3ccc(C(=O)Nc4cc(C#N)ccn4)cc3)c3c(N)ncnc32)C1 [Example 45, (R,E)-4-(4-amino-1-(1-(4-(dimethylamino)but-2-enoyl)piperidin-3-yl)-1H-pyrazolo[3,4-d]pyrimidin-3-yl)-N-(4-cyanopyridin-2-yl)benzamide]
6 | 100 to 1000 nM | < 1 nM | < 100 nM | CCCc1cnc(NC(=O)c2ccc(-c3nn([C@@H]4CCN(C(=O)/C=C/CN(C)C5CC5)C4)c4ncnc(N)c34)cc2)s1 [Example 10, (R,E)-4-(4-amino-1-(1-(4-(cyclopropyl(methyl)amino)but-2-enoyl)pyrrolidin-3-yl)-1H-pyrazolo[3,4-d]pyrimidin-3-yl)-N-(5-propylthiazol-2-yl)benzamide]
7 |  | < 1 nM |  | CCCc1ccnc(NC(=O)c2ccc(-c3nn([C@@H]4CCCN(C(=O)/C=C/CN(C)C5CC5)C4)c4ncnc(N)c34)cc2)c1 [Example 37, (R,E)-4-(4-amino-1-(1-(4-(cyclopropyl(methyl)amino)but-2-enoyl)piperidin-3-yl)-1H-pyrazolo[3,4-d]pyrimidin-3-yl)-N-(4-propylpyridin-2-yl)benzamide]
8 |  | < 1 nM |  | CN(C/C=C/C(=O)N1CCC[C@@H](n2nc(-c3ccc(C(=O)Nc4cc(C#N)ccn4)cc3)c3c(N)ncnc32)C1)C1CC1 [Example 38, (R,E)-4-(4-amino-1-(1-(4-(cyclopropyl(methyl)amino)but-2-enoyl)piperidin-3-yl)-1H-pyrazolo[3,4-d]pyrimidin-3-yl)-N-(4-cyanopyridin-2-yl)benzamide]
9 |  | < 1 nM |  | CC(C)c1ccnc(NC(=O)c2ccc(-c3nn([C@@H]4CCCN(C(=O)/C=C/CN(C)C)C4)c4ncnc(N)c34)cc2)c1 [Example 44, (R,E)-4-(4-amino-1-(1-(4-(dimethylamino)but-2-enoyl)piperidin-3-yl)-1H-pyrazolo[3,4-d]pyrimidin-3-yl)-N-(4-isopropylpyridin-2-yl)benzamide]
10 |  | < 1 nM |  | CCCc1ccnc(NC(=O)c2ccc(-c3nn([C@@H]4CCN(C(=O)/C=C/CN(C)C)C4)c4ncnc(N)c34)cc2)c1 [Example 33, (R,E)-4-(4-amino-1-(1-(4-(dimethylamino)but-2-enoyl)pyrrolidin-3-yl)-1H-pyrazolo[3,4-d]pyrimidin-3-yl)-N-(4-propylpyridin-2-yl)benzamide]
11 |  | < 1 nM |  | CN(C/C=C/C(=O)N1CCC[C@@H](n2nc(-c3ccc(C(=O)Nc4cc(C(F)(F)F)ccn4)cc3)c3c(N)ncnc32)C1)C1CC1 [Example 36, (R,E)-4-(4-amino-1-(1-(4-(cyclopropyl(methyl)amino)but-2-enoyl)piperidin-3-yl)-1H-pyrazolo[3,4-d]pyrimidin-3-yl)-N-(4-(trifluoromethyl)pyridin-2-yl)benzamide]
12 |  | < 1 nM |  | Cc1ccnc(NC(=O)c2ccc(-c3nn([C@@H]4CCCN(C(=O)/C=C/CN(C)C5CC5)C4)c4ncnc(N)c34)cc2)c1 [Example 35, (R,E)-4-(4-amino-1-(1-(4-(cyclopropyl(methyl)amino)but-2-enoyl)piperidin-3-yl)-1H-pyrazolo[3,4-d]pyrimidin-3-yl)-N-(4-methylpyridin-2-yl)benzamide]
13 |  | < 1 nM |  | CCCc1ccnc(NC(=O)c2ccc(-c3nn([C@@H]4CCCN(C(=O)/C=C/CN(C)C)C4)c4ncnc(N)c34)cc2)c1 [Example 43, (R,E)-4-(4-amino-1-(1-(4-(dimethylamino)but-2-enoyl)piperidin-3-yl)-1H-pyrazolo[3,4-d]pyrimidin-3-yl)-N-(4-propylpyridin-2-yl)benzamide]
14 |  | < 1 nM |  | CN(C)C/C=C/C(=O)N1CCC[C@@H](n2nc(-c3ccc(C(=O)Nc4cc(C(F)(F)F)ccn4)cc3)c3c(N)ncnc32)C1 [Example 42, (R,E)-4-(4-amino-1-(1-(4-(dimethylamino)but-2-enoyl)piperidin-3-yl)-1H-pyrazolo[3,4-d]pyrimidin-3-yl)-N-(4-(trifluoromethyl)pyridin-2-yl)benzamide]
15 |  | < 1 nM |  | Cc1ccnc(NC(=O)c2ccc(-c3nn([C@@H]4CCCN(C(=O)/C=C/CN(C)C)C4)c4ncnc(N)c34)cc2)c1 [Example 41, (R,E)-4-(4-amino-1-(1-(4-(dimethylamino)but-2-enoyl)piperidin-3-yl)-1H-pyrazolo[3,4-d]pyrimidin-3-yl)-N-(4-methylpyridin-2-yl)benzamide]
16 |  | < 100 nM |  | CN(C/C=C/C(=O)N1CCC[C@@H](n2nc(-c3ccc(C(=O)Nc4ccccn4)cc3)c3c(N)ncnc32)C1)C1CC1 [Example 34, (R,E)-4-(4-amino-1-(1-(4-(cyclopropyl(methyl)amino)but-2-enoyl)piperidin-3-yl)-1H-pyrazolo[3,4-d]pyrimidin-3-yl)-N-(pyridin-2-yl)benzamide]
17 |  | < 1 nM |  | CN(C)C/C=C/C(=O)N1CCC[C@@H](n2nc(-c3ccc(C(=O)Nc4ccccn4)cc3)c3c(N)ncnc32)C1 [Example 40, (R,E)-4-(4-amino-1-(1-(4-(dimethylamino)but-2-enoyl)piperidin-3-yl)-1H-pyrazolo[3,4-d]pyrimidin-3-yl)-N-(pyridin-2-yl)benzamide]
18 |  |  | 100 to 1000 nM | CN(C/C=C/C(=O)N1CC[C@@H](n2nc(-c3ccc(C(=O)Nc4ccccn4)cc3)c3c(N)ncnc32)C1)C1CC1 [Example 46, (R,E)-4-(4-amino-1-(1-(4-(cyclopropyl(methyl)amino)but-2-enoyl)pyrrolidin-3-yl)-1H-pyrazolo[3,4-d]pyrimidin-3-yl)-N-(pyridin-2-yl)benzamide]
19 |  | < 100 nM |  | CC(C)c1ccnc(NC(=O)c2ccc(-c3nn([C@@H]4CCCN(C(=O)/C=C/CN(C)C5CC5)C4)c4ncnc(N)c34)cc2)c1 [Example 39, (R,E)-4-(4-amino-1-(1-(4-(cyclopropyl(methyl)amino)but-2-enoyl)piperidin-3-yl)-1H-pyrazolo[3,4-d]pyrimidin-3-yl)-N-(4-isopropylpyridin-2-yl)benzamide]
